In ChEMBL document CHEMBL3414456, “Pentacyclic triterpene derivatives possessing polyhydroxyl ring A inhibit gram-positive bacteria growth by regulating metabolism and virulence genes expression” (2015):
In brackets after ≈: the same amount, converted by molar mass. Activity calls are given as the source filed them. The calls are words filed in the database; no cut-off is given here.

How the values were obtained:
Bacillus spizizenii [1] = experiment: Antibacterial activity against Bacillus subtilis ATCC 6633 assessed as growth inhibition after 24 hrs by turbidimetric analysis; format: functional; conditions: ATCC 6633, 24 h
Staphylococcus aureus [2] = experiment: Antibacterial activity against Staphylococcus aureus ATCC 25923 assessed as growth inhibition at 100 uM after 24 hrs by turbidimetric analysis; format: functional; conditions: for inhibition of growth at 100 µM: ATCC 25923, 24 h, read-out: GI
Staphylococcus aureus [3] = experiment: Upregulation of seaR gene expression in Staphylococcus aureus ATCC 25923 at 0.5 x MIC by Q-RT-PCR analysis relative to control; format: functional, organism-based
Staphylococcus aureus [4] = experiment: Downregulation of narG gene expression in Staphylococcus aureus ATCC 25923 at 0.5 x MIC by Q-RT-PCR analysis relative to control; format: functional, organism-based
Staphylococcus aureus [5] = experiment: Downregulation of lytM gene expression in Staphylococcus aureus ATCC 25923 at 0.5 x MIC by Q-RT-PCR analysis relative to control; format: functional, organism-based
Staphylococcus aureus [6] = experiment: Upregulation of hla gene expression in Staphylococcus aureus ATCC 25923 at 0.5 x MIC by Q-RT-PCR analysis relative to control; format: functional, organism-based
Staphylococcus aureus [7] = experiment: Antibacterial activity against Staphylococcus aureus ATCC 25923 assessed as growth inhibition after 24 hrs by turbidimetric analysis; format: functional; conditions: ATCC 25923, 24 h
Staphylococcus aureus [8] = experiment: Upregulation of fmhB gene expression in Staphylococcus aureus ATCC 25923 at 0.5 x MIC by Q-RT-PCR analysis relative to control; format: functional, organism-based
Streptomyces scabiei [9] = experiment: Antibacterial activity against Streptomyces scabiei CGMCC4.7610246 assessed as growth inhibition after 36 hrs by turbidimetric analysis; format: functional; conditions: CGMCC4.7610246, 36 h
Bacillus spizizenii [10] = experiment: Antibacterial activity against Bacillus subtilis ATCC 6633 assessed as growth inhibition at 100 uM after 24 hrs by turbidimetric analysis; format: functional; conditions: for inhibition of growth at 100 µM: ATCC 6633, 24 h, read-out: GI
Staphylococcus aureus [11] = experiment: Potency index, ratio of ampicillin MIC to compound MIC for Staphylococcus aureus ATCC 25923; format: functional
Bacillus subtilis = experiment: Antibacterial activity against Bacillus subtilis; format: functional
Staphylococcus aureus [12] = experiment: Antibacterial activity against Staphylococcus aureus; format: functional
Bacillus spizizenii [13] = experiment: Downregulation of yhdT gene expression in Bacillus subtilis ATCC 6633 at 0.5 x MIC by Q-RT-PCR analysis relative to control; format: functional, organism-based
Bacillus spizizenii [14] = experiment: Downregulation of mmgD gene expression in Bacillus subtilis ATCC 6633 at 0.5 x MIC by Q-RT-PCR analysis relative to control; format: functional, organism-based
Bacillus spizizenii [15] = experiment: Downregulation of yqhB gene expression in Bacillus subtilis ATCC 6633 at 0.5 x MIC by Q-RT-PCR analysis relative to control; format: functional, organism-based
Bacillus spizizenii [16] = experiment: Downregulation of lytF gene expression in Bacillus subtilis ATCC 6633 at 0.5 x MIC by Q-RT-PCR analysis relative to control; format: functional, organism-based
Staphylococcus aureus [17] = experiment: Antibacterial activity against Staphylococcus aureus ATCC 25923 assessed as growth inhibition after 2 to 24 hrs; format: functional, organism-based
Bacillus spizizenii [18] = experiment: Upregulation of ykuD gene expression in Bacillus subtilis ATCC 6633 at 0.5 x MIC by Q-RT-PCR analysis relative to control; format: functional
Staphylococcus aureus [19] = experiment: Antibacterial activity against Staphylococcus aureus after 24 hrs; format: functional
Staphylococcus aureus [20] = experiment: Antibacterial activity against […] Staphylococcus aureus ATCC 29213 by serial microplate method; format: functional
Escherichia coli = experiment: Antibacterial activity against Escherichia coli ATCC 25922 by serial microplate method; format: functional
Streptomyces scabiei [21] = experiment: Antibacterial activity against Streptomyces scabiei CGMCC4.7610246 assessed as growth inhibition at 100 uM after 36 hrs by turbidimetric analysis; format: functional, organism-based
Bacillus spizizenii [22] = experiment: Antibacterial activity against Bacillus subtilis ATCC 6633 assessed as growth inhibition after 2 to 24 hrs; format: functional, organism-based
Streptomyces scabiei [23] = experiment: Antibacterial activity against Streptomyces scabiei CGMCC4.7610246 assessed as killing time at 0.5 x MIC to 4 x MIC; format: functional
Streptomyces scabiei [24] = experiment: Downregulation of necl gene expression in Streptomyces scabiei CGMCC4.7610246 at 0.5 x MIC by Q-RT-PCR analysis relative to control; format: functional, organism-based
Streptomyces scabiei [25] = experiment: Downregulation of txtA gene expression in Streptomyces scabiei CGMCC4.7610246 at 0.5 x MIC by Q-RT-PCR analysis relative to control; format: functional, organism-based
Streptomyces scabiei [26] = experiment: Downregulation of tomA gene expression in Streptomyces scabiei CGMCC4.7610246 at 0.5 x MIC by Q-RT-PCR analysis relative to control; format: functional, organism-based
Streptomyces scabiei [27] = experiment: Downregulation of p450 gene expression in Streptomyces scabiei CGMCC4.7610246 at 0.5 x MIC by Q-RT-PCR analysis relative to control; format: functional, organism-based
Streptomyces scabiei [28] = experiment: Downregulation of murX gene expression in Streptomyces scabiei CGMCC4.7610246 at 0.5 x MIC by Q-RT-PCR analysis relative to control; format: functional, organism-based
Streptomyces scabiei [29] = experiment: Antibacterial activity against Streptomyces scabiei CGMCC4.7610246 assessed as growth inhibition after 4 to 36 hrs; format: functional, organism-based
Streptomyces scabiei [30] = experiment: Downregulation of txtC gene expression in Streptomyces scabiei CGMCC4.7610246 at 0.5 x MIC by Q-RT-PCR analysis relative to control; format: functional, organism-based
Microsporum canis = experiment: Antifungal activity against Microsporum canis by serial microplate method; format: functional
[31] = tested on: Meyerozyma guilliermondii; experiment: Antifungal activity against Candida guilliermondii by serial microplate method; format: functional

CCOC(=O)[C@]12CC[C@@H](C)[C@H](C)[C@H]1C1=CC[C@@H]3[C@@]4(C)[C@@H](O)[C@H](O)[C@H](O)C(C)(C)[C@@H]4CC[C@@]3(C)[C@]1(C)CC2
MIC (Bacillus spizizenii [1]): 64 µM (≈ 33.1 µg/mL)
inhibition of growth at 100 µM (Staphylococcus aureus [2]): > 95%
Activity (Staphylococcus aureus [3]): Active
Activity (Staphylococcus aureus [4]): Active
Activity (Staphylococcus aureus [5]): Active
Activity (Staphylococcus aureus [6]): Active
MIC (Staphylococcus aureus [7]): 2 µM (≈ 1.03 µg/mL)
Activity (Staphylococcus aureus [8]): Active
MIC (Streptomyces scabiei [9]): ≥ 100 µM
inhibition of growth at 100 µM (Bacillus spizizenii [10]): > 95%
Ratio (Staphylococcus aureus [11]): 2

CC1OC(OC[C@]2(C)[C@@H](O)[C@@H](O)[C@@H](O)[C@]3(C)[C@H]4CC=C5[C@@H]6[C@@H](C)[C@H](C)CC[C@]6(C)CC[C@@]5(C)[C@]4(C)CC[C@@H]23)C(O)C(O)C1O (some centres undefined)
MIC (Bacillus subtilis): 15.6 µg/mL (≈ 25.1 µM)
MIC (Staphylococcus aureus [12]): 31.3 µg/mL (≈ 50.4 µM)

CC(C)OC(=O)[C@]12CC[C@@H](C)[C@H](C)[C@H]1C1=CC[C@@H]3[C@@]4(C)[C@@H](O)[C@H](O)[C@H](O)C(C)(C)[C@@H]4CC[C@@]3(C)[C@]1(C)CC2
Activity (Bacillus spizizenii [13]): Active
MIC (Bacillus spizizenii [1]): 4 µM (≈ 2.12 µg/mL)
Activity (Bacillus spizizenii [14]): Active
Activity (Bacillus spizizenii [15]): inactive
inhibition of growth at 100 µM (Staphylococcus aureus [2]): > 95%
Activity (Staphylococcus aureus [3]): Active
Activity (Staphylococcus aureus [4]): Active
Activity (Bacillus spizizenii [16]): Active
growth inhibition (GI) (Staphylococcus aureus [17]): Dose-dependent effect
Activity (Staphylococcus aureus [6]): Active
MIC (Staphylococcus aureus [7]): 1 µM (≈ 0.531 µg/mL)
Activity (Staphylococcus aureus [8]): Active
MIC (Streptomyces scabiei [9]): ≥ 100 µM
fold change (FC) (Bacillus spizizenii [18]): 2.5
inhibition of growth at 100 µM (Bacillus spizizenii [10]): > 95%
Ratio (Staphylococcus aureus [11]): 4

C[C@H]1[C@H](C)C=C[C@]2(C(=O)O)CC[C@]3(C)C(=CC[C@H]4[C@]5(C)[C@H]([C@H](O)C[C@]43C)C(C)(C)[C@@H](O)[C@H](O)[C@@H]5O)[C@H]12
inhibition zone (IZ) (Staphylococcus aureus [19]): 24 mm

CC1(C)[C@@H](O)C[C@H](O)[C@]2(C)[C@H]3CC=C4[C@@H]5C[C@](C)(C(=O)O)CC[C@]5(C(=O)O)CC[C@@]4(C)[C@]3(C)CC[C@@H]12
MIC (Staphylococcus aureus [20]): 125 µg/mL (≈ 249 µM)
MIC (Escherichia coli): 16 µg/mL (≈ 31.8 µM)

C[C@@H](O)[C@H]1C(=O)N2C(C(=O)O)=C(SCCNC=N)C[C@H]12 [IMIPENEM ANHYDROUS]
inhibition zone (IZ) (Staphylococcus aureus [19]): 33 mm

C[C@H]1[C@H](C)CC[C@]2(C(=O)O)CC[C@]3(C)C(=CC[C@@H]4[C@@]5(C)CC[C@H](O)C(C)(C)[C@@H]5CC[C@]43C)[C@H]12
Activity (Bacillus spizizenii [13]): Active
Activity (Bacillus spizizenii [14]): Active
Activity (Bacillus spizizenii [15]): Active
growth inhibition (GI) (Staphylococcus aureus [2]): Active
growth inhibition (GI) (Streptomyces scabiei [21]): Active
Activity (Staphylococcus aureus [3]): Active
Activity (Bacillus spizizenii [16]): Active
Activity (Staphylococcus aureus [6]): Active
Activity (Staphylococcus aureus [8]): Active
Activity (Bacillus spizizenii [18]): Active
growth inhibition (GI) (Bacillus spizizenii [10]): Active

CCOC(=O)[C@]12CCC(C)(C)C[C@H]1C1=CC[C@@H]3[C@@]4(C)[C@@H](O)[C@H](O)[C@H](O)C(C)(C)[C@@H]4CC[C@@]3(C)[C@]1(C)CC2
MIC (Bacillus spizizenii [1]): 64 µM (≈ 33.1 µg/mL)
inhibition of growth at 100 µM (Staphylococcus aureus [2]): > 95%
Activity (Staphylococcus aureus [3]): Active
growth inhibition (GI) (Staphylococcus aureus [17]): Dose-dependent effect
Activity (Staphylococcus aureus [5]): Active
Activity (Staphylococcus aureus [6]): Active
MIC (Staphylococcus aureus [7]): 1 µM (≈ 0.517 µg/mL)
Activity (Staphylococcus aureus [8]): Active
MIC (Streptomyces scabiei [9]): ≥ 100 µM
inhibition of growth at 100 µM (Bacillus spizizenii [10]): > 95%
Ratio (Staphylococcus aureus [11]): 2

CC1(C)CC[C@]2(C(=O)O)CC[C@]3(C)C(=CC[C@@H]4[C@@]5(C)[C@H]6O[C@H]6[C@H](O)C(C)(C)[C@@H]5CC[C@]43C)[C@@H]2C1
growth inhibition (GI) (Staphylococcus aureus [2]): Active
growth inhibition (GI) (Streptomyces scabiei [21]): Active
growth inhibition (GI) (Bacillus spizizenii [10]): Active
growth inhibition (GI) (Bacillus spizizenii [22]): Dose-dependent effect

C[C@@]1(C(=O)O)CC[C@]2(C(=O)O)CC[C@]3(C)C(=CC[C@@H]4[C@@]5(C)[C@@H](O)C[C@H](O)[C@](C)(CO)[C@@H]5CC[C@]43C)[C@@H]2C1
MIC (Staphylococcus aureus [20]): 63 µg/mL (≈ 121 µM)
MIC (Escherichia coli): 16 µg/mL (≈ 30.8 µM)

COC(=O)[C@]12CCC(C)(C)C[C@H]1C1=CC[C@@H]3[C@@]4(C)[C@@H](O)[C@H](O)[C@H](O)C(C)(C)[C@@H]4CC[C@@]3(C)[C@]1(C)CC2
MIC (Bacillus spizizenii [1]): 64 µM (≈ 32.2 µg/mL)
inhibition of growth at 100 µM (Staphylococcus aureus [2]): > 95%
Time (Streptomyces scabiei [23]): >24 h
Activity (Streptomyces scabiei [24]): Active
Activity (Streptomyces scabiei [25]): Active
MIC (Staphylococcus aureus [7]): ≥ 100 µM
Activity (Streptomyces scabiei [26]): Active
Activity (Streptomyces scabiei [27]): Active
Activity (Streptomyces scabiei [28]): Active
growth inhibition (GI) (Streptomyces scabiei [29]): Dose-dependent effect
MIC (Streptomyces scabiei [9]): 4 µM (≈ 2.01 µg/mL)
Activity (Streptomyces scabiei [30]): Active
inhibition of growth at 100 µM (Bacillus spizizenii [10]): > 95%

C[C@H]1[C@H](C)CC[C@]2(C(=O)O)CC[C@]3(C)C(=CC[C@@H]4[C@@]5(C)C[C@@H](O)[C@H](O)C(C)(C)[C@@H]5CC[C@]43C)[C@H]12 [COROSOLIC ACID]
MIC (Microsporum canis): 8 µg/mL (≈ 16.9 µM)
MIC (Staphylococcus aureus [20]): 7 µg/mL (≈ 14.8 µM)
MIC [31]: 11.7 µg/mL (≈ 24.8 µM)

CC1(C)CC[C@]2(C(=O)O)CC[C@]3(C)C(=CC[C@@H]4[C@@]5(C)CC[C@H](O)C(C)(C)[C@@H]5CC[C@]43C)[C@@H]2C1
growth inhibition (GI) (Staphylococcus aureus [2]): Active
growth inhibition (GI) (Streptomyces scabiei [21]): Active
Activity (Staphylococcus aureus [3]): Active
Activity (Streptomyces scabiei [24]): Active
Activity (Staphylococcus aureus [6]): Active
Activity (Streptomyces scabiei [25]): Active
Activity (Streptomyces scabiei [26]): Active
Activity (Streptomyces scabiei [27]): inactive
Activity (Streptomyces scabiei [28]): Active
Activity (Staphylococcus aureus [8]): Active
Activity (Streptomyces scabiei [30]): Active
growth inhibition (GI) (Bacillus spizizenii [10]): Active
